# Source: PubChem BioAssay AID1645864 (Buhrlage Lab, Dana-Farber Cancer Institute and Novartis …, 2021)
# Calls of active or inactive are those of the source.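 The calls were made as follows: active = maximal inhibition of USP17 at or above 30% in the confirmation dose-response, a value not among the printed readouts; inactive = the rest.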
# Target: Ubiquitin carboxyl-terminal hydrolase 17-like protein 5 (Homo sapiens) (UniProt A8MUK1)
# Test: ubiquitin-specific protease 17 inhibitors, concentration series, biochemical, verification of primary actives (AID 1645864)
# Details: purified USP17, ubiquitin-rhodamine cleavage fluorescence, 3 h
# Ubiquitin carboxyl-terminal hydrolase 17-like protein 5 (Homo sapiens), sequence (A8MUK1 whole entry, looked up): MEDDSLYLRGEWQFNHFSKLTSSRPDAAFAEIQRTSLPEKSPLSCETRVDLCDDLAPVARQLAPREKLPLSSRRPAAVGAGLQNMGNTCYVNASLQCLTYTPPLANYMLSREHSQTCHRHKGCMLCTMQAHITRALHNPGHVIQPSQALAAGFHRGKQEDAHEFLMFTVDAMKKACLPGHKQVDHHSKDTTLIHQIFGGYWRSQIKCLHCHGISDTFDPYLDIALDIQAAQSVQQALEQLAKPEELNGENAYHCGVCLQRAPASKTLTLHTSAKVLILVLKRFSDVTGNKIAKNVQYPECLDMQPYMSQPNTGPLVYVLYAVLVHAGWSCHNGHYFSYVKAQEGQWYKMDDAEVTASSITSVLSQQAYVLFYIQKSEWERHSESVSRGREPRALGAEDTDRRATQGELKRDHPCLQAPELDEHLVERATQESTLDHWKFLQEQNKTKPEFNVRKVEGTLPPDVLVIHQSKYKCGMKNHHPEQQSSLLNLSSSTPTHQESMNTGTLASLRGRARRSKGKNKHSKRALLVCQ
row,Structure (SMILES),IC50
1,O=C(Cn1c(=O)n(Cc2ccc(F)cc2)c(=O)c2ncccc21)Nc1ccccc1,45.2 µM
2,Cc1cc(C)n(-c2ccc(C(=O)NCc3ccc(F)cc3)cn2)n1,33.9 µM
3,O=C1Oc2nc3ccccc3cc2CN1Cc1ccco1,23.9 µM
4,O=C(Nc1ccc(F)cc1F)NC1Cc2ccccc2C1,28.2 µM
5,O=C(Nc1ccncc1)c1ncoc1-c1cccc(Cl)c1,> 50 µM (inactive)
6,O=C(Nc1cccn(Cc2c(Cl)cccc2Cl)c1=O)c1ccccc1[N+](=O)[O-],37 µM
7,O=c1[nH]c(C2CCN(S(=O)(=O)c3ccc(S(=O)(=O)NC4CCCCC4)cc3)CC2)nc2c1nnn2Cc1c(Cl)cccc1Cl,9.15 µM
8,CCC1(C)Cc2c(sc3nc(SCC(=O)Nc4ccc(C(C)=O)cc4)nc(N)c23)CO1 (centres undefined),34.9 µM
9,COc1ccc(Nc2nc(C(=O)NCc3ccc4c(c3)OCO4)cc3occc23)cc1,10.7 µM
10,CCC(C)c1ccc(-c2csc(Cn3c(CN4CCN(C)CC4)nc4ccccc4c3=O)n2)cc1 (centres undefined),3.29 µM
11,N#Cc1ccccc1OCc1csc(-c2ccccc2)n1,> 50 µM (inactive)
12,COc1cccc2cccc(O)c12,> 50 µM (inactive)
13,Cc1cccc(NC(=O)c2ccn(COc3ccc(F)cc3F)n2)c1C,> 50 µM (inactive)
14,Cc1ccc2nc(NC(=O)CSc3nnc(-c4ccncc4)n3C3CC3)sc2c1,3.82 µM
15,Cc1cccc(NC(=O)c2nn(C)c3ccccc3c2=O)c1,27.1 µM
16,O=C(COC(=O)CCc1ccc(S(=O)(=O)N2CCOCC2)cc1)Nc1ccc2c(c1)OCCO2,> 50 µM (inactive)
17,O=C(Nc1cccc(N2CCCC2=O)c1)c1cccc2cccnc12,21.9 µM
18,O=C(COc1cc([N+](=O)[O-])cc2cccnc12)NCCC1=CCCCC1,23.5 µM
19,Cc1ccc(C)c(-n2c(N)c(C(=O)NCCc3ccccc3)c3nc4ccccc4nc32)c1,> 50 µM (inactive)
20,Cc1ccc(NC(=O)CSc2nc3c(cc2C#N)C(=O)CCC3)cc1,29.8 µM
21,CC(C)NC(=O)CN1C(=O)CC(C)Sc2ccc(S(=O)(=O)N3CCCCC3)cc21 (centres undefined),25.2 µM
22,O=C(COc1ccc(Cl)cc1)NCc1nnc(SCC(=O)NCc2ccc3c(c2)OCO3)o1,28.2 µM
23,O=C(Cc1c[nH]c2ccccc12)Nc1nc2ccccc2s1,> 50 µM (inactive)
24,O=C(NCC1CC1)C1CCCN(c2ccc(-c3ccccc3)nn2)C1 (centres undefined),> 50 µM (inactive)
25,CCOc1cc(N2CCOCC2)c(OCC)cc1NC(=O)c1cc(-c2ccncc2)nc2ccccc12,10.1 µM

row,Structure (SMILES),IC50
1,Cc1cccc(O)c1-c1nc2c(-c3nc4c(C(=O)O)cccc4o3)cccc2o1,> 50 µM (inactive)
2,CCC(=O)Nc1ccccc1-c1nc2ccccc2n(CC(=O)Nc2cc(OC)ccc2OC)c1=O,18.6 µM
3,Cc1cccc(-c2nc3n(CC(=O)Nc4ccc(Cl)cc4)c(C)cc(=O)n3n2)c1,0.335 µM
4,COc1ccc(Cn2cnc3c([nH]c4ccc(Br)cc43)c2=O)cc1,0.778 µM
5,CC(Nc1ncnc2c1sc1nc(N3CCOCC3)c3c(c12)CCC3)c1ccccc1 (centres undefined),5.33 µM
6,COc1cccc(-n2ccc(=O)c(-c3nc(-c4ccccc4Cl)no3)n2)c1,> 50 µM (inactive)
7,Cc1cc(C#N)c2c(C)ccc(C(C)C)cc1-2,> 50 µM (inactive)
8,COc1ccc(-c2cc(C(=O)N3CCN(c4ccc([N+](=O)[O-])cc4)CC3)[nH]n2)cc1,> 50 µM (inactive)
9,Cc1nc2sc(C(=O)Nc3ccccc3Br)c(N)c2c(C)c1C,1.12 µM
10,COc1cc(O)c2c(=O)c(-c3ccc(O)cc3)coc2c1,15.4 µM
11,Cn1c(CCNC(=O)c2[nH]nc3c2CCc2ccccc2-3)nc2ccccc21,32.8 µM
12,Cc1cccc(-c2noc(CCn3c(=O)[nH]c4ccccc4c3=O)n2)c1,34.5 µM
13,CCOC(=O)Nc1ccc(N2CCn3c(nc4ccccc43)C2)cc1OC,> 50 µM (inactive)
14,CC1Oc2ccccc2C(=O)N(Cc2ccc([N+](=O)[O-])cc2)C1=O (centres undefined),> 50 µM (inactive)
15,COc1ccc(NC(=O)c2ccc(-n3nnnc3SC)cc2)cc1Cl,> 50 µM (inactive)
16,COc1ccc(OC)c(NC(=O)CSc2nc(C)nc3c2oc2ccccc23)c1,2.54 µM
17,COc1cccc(/C=C/c2nc(C#N)c(N3CCN(C(=O)c4cccs4)CC3)o2)c1,> 50 µM (inactive)
18,CN(C(=O)c1ccncc1)[C@H]1CC[C@@]2(C)C[C@H](c3ccccc3)C[C@](C)(O2)[C@@H]1O,> 50 µM (inactive)
19,O=C(Cc1cc(-c2ccccc2)on1)NCc1c(F)cccc1F,28.1 µM
20,COc1cc(-c2nc(C(N)=O)c3[nH]c(=O)n(-c4ccc(C)cc4)c3n2)cc(OC)c1OC,1.96 µM
21,Cc1noc(-c2cccc(=O)n2CC(=O)Nc2ccc(C)c(C)c2)n1,20.5 µM
22,Cc1cccc(NC(=O)Nc2ccc(C)n(CC(=O)Nc3ccccc3)c2=O)c1,22.6 µM
23,CC1CCN(C(=O)c2cn(-c3cc(N4CCC(C)CC4)ncn3)cn2)CC1,> 50 µM (inactive)
24,O=c1[nH]c2ccc(S(=O)(=O)Nc3ccc(O)c4ccccc34)cc2[nH]1,4.09 µM
